Test results as given in patent US4932871A, “Rapid method for preparing chromogenic alpha-amylase substrate compounds at high preparative yields” (Miles Inc., priority 1987, dated 1990).
“And” between values parts separate entries of the source, which are not always exact repeats. Identical values can stand only once.

Legend:
β-D-glucosidase = test: Hydrolysis of the glucoside substrate by β-D-glucosidase (Kcat, Km); type: biochemical; details: 50 mM phosphate buffered solution (pH 7.4) containing 5.0 mM MgCl2
[1] = Solubility in phosphate buffered solution; type: physicochemical; details: phosphate buffered solution (pH 7.4)
Source text: The resulting glucoside has an absorbance (λmax) of 438 nm (yellow), an extinction coefficient of 27,400, and is soluble in a phosphate buffered solution (pH 7.4). […] Accordingly, such compound provides a very advantageous substrate for a secondary enzyme, such as β-D-glucosidase, in an assay system for α-amylase.

α-amylase [2] = test: Liquid analytical test system for the detection of α-amylase (DMA-G7, α-glucosidase, β-glucosidase); type: biochemical; details: average of three consecutive readings between 3 and 6 minutes
Procedure: A liquid α-amylase detection reagent was prepared by combining 1.8 mM DMA-G7 prepared according to Example 2, 38 units of α-glucosidase and 20 units of β-glucosidase in 1.0 mL of buffered solution comprising 50 mM PIPES, 50 mM NaCl, and 5.0 mM calcium chloride (pH 7.0). Amylase control serum (0.025 mL) containing 37 IU/L, 175 IU/L, and 313 IU/L, respectively, of α-amylase were added to the detection reagent, independently, and incubated at 37° C. The enzymatic action of α-amylase on the substrate compound in each of the mixtures liberated the shorter chain chromogenic maltooligosaccharide compounds thereof (e.g., DMA-G2 to DMA-G4) which, in turn, were enzymatically acted upon by the α-glucosidase and β-glucosidaseto liberate the optically active form or anion of the 7-hydroxy-9,9-dimethyl- 9H-acridin-2-one chromogen. The rate of color change produced by the liberated chromogen in each of the mixtures was measured at 634 nm on a Cary 219 spectrophotometer (Varian Associates, Inc., Sonnyvale, Calif., USA) from between 1 and 9 minutes after each of the serum samples were added to the detection reagent (Table 2/FIG. 4).

α-amylase [3] = test: Analytical test device for the detection of α-amylase (filter paper impregnated with DMA-G7 reagent); type: biochemical; details: between 180 and 200 seconds, three aliquots
Procedure: A sheet of Whatman 54 filter paper (Whatman, Inc., Clifton, N.J., USA) was immersed into a solution comprising the liquid α-amylase detection reagent prepared according to Example 3, 0.1% Triton X-100 (Sigma Chemical Co., St. Louis, Mo., USA) and 0.5% carboxycellulose, and dried.
Analytical test devices were prepared by mounting 0.5 cm wide ×1.0 cm long segment of the aforementioned impregnated filter paper onto and along the edge of one surface of 0.5 cm×8.125 cm polystyrene supports (Tricite®, Dow Chemical Co., Midland, Mich., USA) previously laminated with a 2 mm strip of Double Stick® double-faced adhesive tape (3M Company, St. Paul, Minn., USA).
Three 30 μL aliquots of undiluted serum containing 39 IU/L, 78 IU/L, 117 IU/L, 157 IU/L, 235 IU/L, and 313 IU/L, respectively, of α-amylase were applied, independently, to a test device and the rate of color change produced by the liberated chromogen on each device was measured at 630 nm on a Seralyzer® reflectance photometer (Miles Inc., Elkhart, Ind., USA) from between 0 seconds and 240 seconds after the serum sample was added to each test device.

Row | SMILES | rate at which the enzyme cleaves the substrate (Kcat) (β-D-glucosidase) | Km (β-D-glucosidase; read-out: binding constant (Km)) [µM] | solubility [1] | α-amylase reactivity, rate of color change at 634 nm (α-amylase [2]; 37 IU/L α-amylase) [Absorbance/Minute] | α-amylase reactivity, rate of color change at 634 nm (α-amylase [2]; 175 IU/L α-amylase) [Absorbance/Minute] | α-amylase reactivity, rate of color change at 634 nm (α-amylase [2]; 313 IU/L α-amylase) [Absorbance/Minute] | Reactivity (linear regression of L(R), reflectance at 630 nm) (α-amylase [3]; 39 IU/L α-amylase in undiluted serum) | Reactivity (linear regression of L(R), reflectance at 630 nm) (α-amylase [3]; 78 IU/L α-amylase in undiluted serum) | Reactivity (linear regression of L(R), reflectance at 630 nm) (α-amylase [3]; 117 IU/L α-amylase in undiluted serum) | Reactivity (linear regression of L(R), reflectance at 630 nm) (α-amylase [3]; 157 IU/L α-amylase in undiluted serum) | Reactivity (linear regression of L(R), reflectance at 630 nm) (α-amylase [3]; 235 IU/L α-amylase in undiluted serum) | Reactivity (linear regression of L(R), reflectance at 630 nm) (α-amylase [3]; 313 IU/L α-amylase in undiluted serum)
1 | CC1(C)C2=CC(=O)C=CC2=Nc2ccc(O[C@@H]3O[C@H](CO)[C@@H](O)[C@H](O)[C@H]3O)cc21 [DMA-G1, 7-β-D-glucopyranosyloxy-9,9-dimethyl-9H-acridin-2-one] | 1.32×10^4 mol min.^-1 /mol. active site | 170 | soluble |  |  |  |  |  |  |  |  | 
2 | CC1(C)C2=CC(=O)C=CC2=Nc2ccc(O)cc21 [liberated chromogen anion, 7-hydroxy-9,9-dimethyl-9H-acridin-2-one] |  |  | soluble |  |  |  |  |  |  |  |  | 
3 | CC1(C)C2=CC(=O)C=CC2=Nc2ccc(O[C@@H]3O[C@H](CO)[C@@H](O[C@H]4O[C@H](CO)[C@@H](O[C@H]5O[C@H](CO)[C@@H](O[C@H]6O[C@H](CO)[C@@H](O[C@H]7O[C@H](CO)[C@@H](O[C@H]8O[C@H](CO)[C@@H](O[C@H]9O[C@H](CO)[C@@H](O)[C@H](O)[C@H]9O)[C@H](O)[C@H]8O)[C@H](O)[C@H]7O)[C@H](O)[C@H]6O)[C@H](O)[C@H]5O)[C@H](O)[C@H]4O)[C@H](O)[C@H]3O)cc21 [DMA-G7, 7-β-maltoheptaosyloxy-9,9-dimethyl-acridin-2-one] |  |  |  | 0.011 | 0.062 | 0.109 | 0.384 × 10^-2 and 0.373 × 10^-2 and 0.359 × 10^-2 | 0.957 × 10^-2 and 0.941 × 10^-2 and 0.954 × 10^-2 | 1.450 × 10^-2 and 1.510 × 10^-2 and 1.430 × 10^-2 | 1.781 × 10^-2 and 1.999 × 10^-2 and 1.886 × 10^-2 | 2.560 × 10^-2 and 2.596 × 10^-2 and 2.610 × 10^-2 | 2.961 × 10^-2 and 2.989 × 10^-2 and 2.916 × 10^-2
